Laboratory results taken from patent US11180504B2 (ORCHID PHARMA LTD., priority 2016, dated 2021).
Converted amounts (≈) assume the structure as drawn.

Columns and labels:
[1] = system: extended spectrum β lactamase (ESBL) SHV18 producing Klebsiella pneumoniae; assay: MIC by broth micro-dilution (CLSI), ESBL SHV18 producing K. pneumoniae; assay type: cell-based; conditions: Klebsiella pneumoniae, ATCC700603, 22 h, ESBL +ve (SHV-18) K. pneumoniae ATCC700603; read-out: MIC
[2] = system: methicillin-sensitive Staphylococcus aureus; assay: MIC by broth micro-dilution (CLSI), methicillin-sensitive S. aureus; assay type: cell-based; conditions: Staphylococcus aureus, ATCC 29213 / MSSA, MSSA S. aureus ATCC29213; read-out: MIC
[3] = system: carbapenem sensitive Escherichia coli; assay: MIC by broth micro-dilution (CLSI), carbapenem sensitive E. coli; assay type: cell-based; conditions: Escherichia coli, ATCC25922, ESBL −ve E. coli ATCC25922; read-out: MIC
[4] = system: carbapenem sensitive Pseudomonas aeruginosa; assay: MIC by broth micro-dilution (CLSI), carbapenem sensitive P. aeruginosa; assay type: cell-based; conditions: Pseudomonas aeruginosa, ATCC27853, Meropenem susceptible P. aeruginosa ATCC27853; read-out: MIC
[5] = system: carbapenemase producing K. pneumoniae; assay: MIC by broth micro-dilution (CLSI), carbapenemase producing K. pneumoniae; assay type: cell-based, Klebsiella pneumoniae; conditions: Klebsiella pneumoniae, ATCCBAA1705, KPC-2 K. pneumoniae ATCC BAA-1705; read-out: MIC

| SMILES | MIC [1] [µg/mL] | MIC [2] [µg/mL] | MIC [3] [µg/mL] | MIC [4] [µg/mL] | MIC [5] [µg/mL] |
| --- | --- | --- | --- | --- | --- |
| C[C@@H](NS(=O)(=O)c1cccs1)[C@H]1C(=O)N2C(C(=O)O)=C(S[C@@H]3CN[C@H](C(=O)N(C)C)C3)[C@H](C)[C@@H]12 [Example 33] | 32 (≈ 60.5 µM) | 4 (≈ 7.57 µM) | 4 (≈ 7.57 µM) | > 128 | 16 (≈ 30.3 µM) |
| C[C@@H](NS(=O)(=O)C(F)(F)F)[C@H]1C(=O)N2C(C(=O)O)=C(S[C@@H]3CN[C@H](C(=O)N4CC[C@@H](O)C4)C3)[C@H](C)[C@H]12 [Example 34] | 8 (≈ 14.4 µM) | 4 (≈ 7.19 µM) | 1 (≈ 1.8 µM) | 128 (≈ 230 µM) | 8 (≈ 14.4 µM) |
| C[C@@H](NC(=O)C(F)F)[C@H]1C(=O)N2C(C(=O)O)=C(S[C@@H]3CN[C@H](C(=O)N4CCSCC4)C3)[C@H](C)[C@H]12 [Example 35] | 4 (≈ 7.71 µM) | 1 (≈ 1.93 µM) | 1 (≈ 1.93 µM) | > 128 | 2 to 4 (≈ 3.86 to 7.71 µM) |
| COC(=S)N[C@H](C)[C@H]1C(=O)N2C(C(=O)O)=C(S[C@@H]3CN[C@H](C(=O)N(C)C)C3)[C@H](C)[C@H]12 [Example 36] | 16 (≈ 35 µM) | 1 (≈ 2.19 µM) | 2 (≈ 4.38 µM) | 128 (≈ 280 µM) | 16 (≈ 35 µM) |
| C[C@@H](NC(=O)C(F)F)[C@H]1C(=O)N2C(C(=O)O)=C(S[C@@H]3CN[C@H](C(=O)N4CCC(C(=O)O)CC4)C3)[C@H](C)[C@H]12 [Example 37] | 1 (≈ 1.84 µM) | 16 (≈ 29.4 µM) | 1 (≈ 1.84 µM) | > 128 | 16 (≈ 29.4 µM) |
| C[C@@H](NC(=O)C(F)F)[C@H]1C(=O)N2C(C(=O)O)=C(S[C@@H]3CN[C@H](CNS(N)(=O)=O)C3)[C@H](C)[C@H]12 [Example 38] | 1 (≈ 2.01 µM) | 0.25 (≈ 0.502 µM) | 1 (≈ 2.01 µM) | 32 to 64 (≈ 64.3 to 129 µM) | 2 to 4 (≈ 4.02 to 8.04 µM) |
| C[C@@H](NS(C)(=O)=O)[C@H]1C(=O)N2C(C(=O)O)=C(S[C@@H]3CN[C@H](C(=O)N4CC[N+](C)(CC(N)=O)CC4)C3)[C@H](C)[C@H]12 [Example 39] | 16 | 16 | 4 | 16 | 16 |
| C[C@@H](NC(=O)CC(F)(F)F)[C@H]1C(=O)N2C(C(=O)O)=C(S[C@@H]3CN[C@H](C(=O)N(C)C)C3)[C@H](C)[C@H]12 [Example 40] | 8 (≈ 16.2 µM) | 4 (≈ 8.12 µM) | 1 (≈ 2.03 µM) | > 128 | 4 to 8 (≈ 8.12 to 16.2 µM) |
| C[C@@H](NC(=O)OCC(F)F)[C@H]1C(=O)N2C(C(=O)O)=C(S[C@@H]3CN[C@H](C(=O)N(C)C)C3)[C@H](C)[C@H]12 [Example 41] | 16 (≈ 32.6 µM) | 2 (≈ 4.08 µM) | 1 (≈ 2.04 µM) | > 128 | 16 (≈ 32.6 µM) |
| C[C@@H](NC(=O)C(F)F)[C@H]1C(=O)N2C(C(=O)O)=C(S[C@@H]3CN[C@H](C(=O)N4CC[S+]([O-])CC4)C3)[C@H](C)[C@H]12 [Example 42] | 1 (≈ 1.87 µM) | 2 (≈ 3.74 µM) | 1 (≈ 1.87 µM) | 128 (≈ 239 µM) | 8 (≈ 15 µM) |
| C[C@@H](NC(=O)C(F)F)[C@H]1C(=O)N2C(C(=O)O)=C(S[C@@H]3CN[C@H](C(=O)N4CCN(C)CC4)C3)[C@H](C)[C@H]12 [Example 43] | 4 (≈ 7.76 µM) | 2 (≈ 3.88 µM) | 1 (≈ 1.94 µM) | 64 (≈ 124 µM) | 8 (≈ 15.5 µM) |
| C[C@@H](NC(=O)CN)[C@H]1C(=O)N2C(C(=O)O)=C(S[C@@H]3CN[C@H](C(=O)N(C)C)C3)[C@H](C)[C@H]12 [Example 44] | 4 (≈ 9.1 µM) | 32 (≈ 72.8 µM) | 4 (≈ 9.1 µM) | 16 (≈ 36.4 µM) | 8 (≈ 18.2 µM) |
| C[C@@H](NC(=O)C(F)F)[C@H]1C(=O)N2C(C(=O)O)=C(S[C@@H]3CN[C@H](C(=O)N4CC[N+](C)(C)CC4)C3)[C@H](C)[C@H]12 [Example 45] | 4 | 1 | 1 | 4 | 16 |
| C[C@@H](NC(=O)C(F)F)[C@H]1C(=O)N2C(C(=O)O)=C(S[C@@H]3CN[C@H](C(=O)N4CC[N+](C)(CC(N)=O)CC4)C3)[C@H](C)[C@H]12 [Example 46] | 4 | 1 | 1 | 16 | 8 |
| C[C@@H](NC(=O)OCC(F)(F)F)[C@H]1C(=O)N2C(C(=O)O)=C(S[C@@H]3CN[C@H](C(=O)N(C)C)C3)[C@H](C)[C@H]12 [Example 47] | 128 (≈ 252 µM) | 2 (≈ 3.93 µM) | 2 (≈ 3.93 µM) | > 128 | 64 (≈ 126 µM) |
| C[C@@H](NC=N)[C@H]1C(=O)N2C(C(=O)O)=C(S[C@@H]3CN[C@H](C(=O)N(C)C)C3)[C@H](C)[C@H]12 [Example 48] | 1 (≈ 2.44 µM) | 16 (≈ 39.1 µM) | 0.5 (≈ 1.22 µM) | 8 (≈ 19.5 µM) | 64 (≈ 156 µM) |
| C[C@@H](NC(=O)C(F)F)[C@H]1C(=O)N2C(C(=O)O)=C(S[C@@H]3CN[C@H](C(=O)N4CCS(=O)(=O)CC4)C3)[C@H](C)[C@H]12 [Example 49] | 2 (≈ 3.63 µM) | 2 (≈ 3.63 µM) | 1 (≈ 1.82 µM) | > 128 | > 128 |
| C[C@H](NS(C)(=O)=O)C(=O)N[C@H](C)[C@H]1C(=O)N2C(C(=O)O)=C(S[C@@H]3CN[C@H](C(=O)N(C)C)C3)[C@H](C)[C@H]12 [Example 51] | 32 (≈ 60.2 µM) | 8 (≈ 15 µM) | 4 (≈ 7.52 µM) | > 128 | 32 (≈ 60.2 µM) |
| C[C@@H](NC(=O)OCC(F)(F)F)[C@H]1C(=O)N2C(C(=O)O)=C(S[C@@H]3CN[C@H](CNS(N)(=O)=O)C3)[C@H](C)[C@H]12 [Example 52] | 128 (≈ 235 µM) | 1 (≈ 1.83 µM) | 8 (≈ 14.7 µM) | > 128 | > 128 |
| CO/N=C(\C)C(=O)N[C@H](C)[C@H]1C(=O)N2C(C(=O)O)=C(S[C@@H]3CN[C@H](C(=O)N(C)C)C3)[C@H](C)[C@H]12 [Example 54] | > 128 | 1 (≈ 2.08 µM) | 8 (≈ 16.6 µM) | > 128 | > 128 |
| C[C@@H](NC(=O)[C@H](N)CO)[C@H]1C(=O)N2C(C(=O)O)=C(S[C@@H]3CN[C@H](C(=O)N(C)C)C3)[C@H](C)[C@H]12 [Example 56] | 16 (≈ 34.1 µM) | 64 (≈ 136 µM) | 8 (≈ 17 µM) | 64 (≈ 136 µM) | 16 (≈ 34.1 µM) |
| C[C@@H](NS(=O)(=O)N(C)C)[C@H]1C(=O)N2C(C(=O)O)=C(S[C@@H]3CN[C@H](C(=O)N(C)C)C3)[C@H](C)[C@H]12 [Example 57] | 16 (≈ 32.7 µM) | 32 (≈ 65.4 µM) | 4 (≈ 8.17 µM) | > 128 | 128 (≈ 261 µM) |
| C[C@@H](NC(=O)[C@H]1CCCO1)[C@H]1C(=O)N2C(C(=O)O)=C(S[C@@H]3CN[C@H](C(=O)N(C)C)C3)[C@H](C)[C@H]12 [Example 58] | > 128 | 32 (≈ 66.6 µM) | 16 (≈ 33.3 µM) | > 128 | > 128 |
| C[C@@H](N)C(=O)N[C@H](C)[C@H]1C(=O)N2C(C(=O)O)=C(S[C@@H]3CN[C@H](C(=O)N(C)C)C3)[C@H](C)[C@H]12 [Example 59] | 16 (≈ 35.3 µM) | 32 (≈ 70.6 µM) | 2 (≈ 4.41 µM) | 32 (≈ 70.6 µM) | > 128 |
| C[C@@H](NC(=O)CO)[C@H]1C(=O)N2C(C(=O)O)=C(S[C@@H]3CN[C@H](C(=O)N(C)C)C3)[C@H](C)[C@H]12 [Example 60] | 32 (≈ 72.6 µM) | 32 (≈ 72.6 µM) | 16 (≈ 36.3 µM) | > 128 | 64 (≈ 145 µM) |
| C[C@@H](NC(=O)C(C)(F)F)[C@H]1C(=O)N2C(C(=O)O)=C(S[C@@H]3CN[C@H](C(=O)N(C)C)C3)[C@H](C)[C@H]12 [Example 61] | 16 (≈ 33.7 µM) | 1 (≈ 2.11 µM) | 1 (≈ 2.11 µM) | > 128 | 16 (≈ 33.7 µM) |
